The values below come from publication PMC3712534 (The FEBS journal, 2013).

One assay has as its target T1, DUSP14 (Homo sapiens, UniProt O95147).
T1 sequence (O95147 1-198): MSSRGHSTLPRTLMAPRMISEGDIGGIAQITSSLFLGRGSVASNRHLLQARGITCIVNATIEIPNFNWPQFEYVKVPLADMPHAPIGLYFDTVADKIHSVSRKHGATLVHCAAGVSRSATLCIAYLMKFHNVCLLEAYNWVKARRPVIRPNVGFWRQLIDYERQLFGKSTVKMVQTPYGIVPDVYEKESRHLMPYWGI
In words: Inhibition of a panel of PTPs: DUSP14. It counts as biochemical.

In the next assay the test system is IKK family members. As to conditions: cited from earlier work.
The target in assay [1] is T2, PTP1B (Homo sapiens, UniProt P18031).
T2 sequence (P18031 1-405): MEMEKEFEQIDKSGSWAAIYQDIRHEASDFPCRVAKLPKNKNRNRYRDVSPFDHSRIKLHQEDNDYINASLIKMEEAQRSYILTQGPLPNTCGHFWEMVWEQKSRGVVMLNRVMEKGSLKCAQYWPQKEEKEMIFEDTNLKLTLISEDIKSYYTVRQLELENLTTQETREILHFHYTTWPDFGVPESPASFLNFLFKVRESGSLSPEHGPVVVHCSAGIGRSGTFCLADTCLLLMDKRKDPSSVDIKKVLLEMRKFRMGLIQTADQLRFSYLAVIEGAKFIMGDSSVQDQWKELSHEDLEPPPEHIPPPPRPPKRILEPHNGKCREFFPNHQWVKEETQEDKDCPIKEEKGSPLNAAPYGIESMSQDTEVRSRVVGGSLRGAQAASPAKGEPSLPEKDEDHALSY
As to the kind of experiment: Michaelis-Menten analysis of PTP1B with DiFMUP without and with inhibitor. The conditions noted are these: read-out: drop of maximum rate (Vmax) in the presence of inhibitor. It counts as biochemical.

Another assay addresses LAR (Homo sapiens, UniProt P10586). In words: Inhibition of a panel of PTPs: LAR. It is filed as biochemical.
The next assay concerns the target T3, DUSP16 (Homo sapiens, UniProt Q9BY84).
T3 sequence (Q9BY84 1-665): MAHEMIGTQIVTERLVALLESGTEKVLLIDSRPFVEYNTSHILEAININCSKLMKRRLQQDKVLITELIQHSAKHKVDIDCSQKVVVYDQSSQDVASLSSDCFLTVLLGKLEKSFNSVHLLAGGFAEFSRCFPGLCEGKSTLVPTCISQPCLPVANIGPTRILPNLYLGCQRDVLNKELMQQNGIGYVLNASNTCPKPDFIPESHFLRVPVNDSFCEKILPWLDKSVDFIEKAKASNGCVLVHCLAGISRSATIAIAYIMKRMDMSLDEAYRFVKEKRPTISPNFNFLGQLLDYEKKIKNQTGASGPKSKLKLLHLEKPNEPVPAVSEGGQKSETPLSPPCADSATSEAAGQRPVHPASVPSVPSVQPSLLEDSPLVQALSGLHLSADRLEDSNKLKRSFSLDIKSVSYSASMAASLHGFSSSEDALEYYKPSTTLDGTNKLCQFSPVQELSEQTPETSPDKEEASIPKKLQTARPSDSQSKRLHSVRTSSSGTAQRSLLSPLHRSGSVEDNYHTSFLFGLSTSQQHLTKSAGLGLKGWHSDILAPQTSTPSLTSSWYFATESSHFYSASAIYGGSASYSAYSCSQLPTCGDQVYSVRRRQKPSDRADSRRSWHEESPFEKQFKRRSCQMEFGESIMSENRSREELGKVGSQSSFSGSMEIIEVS
As to the kind of experiment: Inhibition of a panel of PTPs: DUSP16. It counts as biochemical.

The target in the next assay is PTEN (Homo sapiens, UniProt P60484). In words: Inhibition of a panel of PTPs: PTEN. It is filed as biochemical.
Sequence of PTEN (P60484 whole entry, species assumed): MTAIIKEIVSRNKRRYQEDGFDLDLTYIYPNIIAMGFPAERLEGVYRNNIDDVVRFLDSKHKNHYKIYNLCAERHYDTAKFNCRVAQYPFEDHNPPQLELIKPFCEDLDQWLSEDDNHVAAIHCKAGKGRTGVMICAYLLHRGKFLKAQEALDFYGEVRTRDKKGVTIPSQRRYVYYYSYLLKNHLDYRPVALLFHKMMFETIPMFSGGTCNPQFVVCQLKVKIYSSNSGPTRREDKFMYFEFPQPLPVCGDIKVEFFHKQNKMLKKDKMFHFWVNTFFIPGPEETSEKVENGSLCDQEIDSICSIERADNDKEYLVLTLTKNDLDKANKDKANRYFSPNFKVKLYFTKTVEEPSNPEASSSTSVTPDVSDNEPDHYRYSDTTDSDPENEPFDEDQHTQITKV
For another assay, the target named is PTP-alpha (Homo sapiens, UniProt P18433). In words: Inhibition of a panel of PTPs: PTP-alpha. It is filed as biochemical.
Sequence of PTP-alpha (P18433 20-802): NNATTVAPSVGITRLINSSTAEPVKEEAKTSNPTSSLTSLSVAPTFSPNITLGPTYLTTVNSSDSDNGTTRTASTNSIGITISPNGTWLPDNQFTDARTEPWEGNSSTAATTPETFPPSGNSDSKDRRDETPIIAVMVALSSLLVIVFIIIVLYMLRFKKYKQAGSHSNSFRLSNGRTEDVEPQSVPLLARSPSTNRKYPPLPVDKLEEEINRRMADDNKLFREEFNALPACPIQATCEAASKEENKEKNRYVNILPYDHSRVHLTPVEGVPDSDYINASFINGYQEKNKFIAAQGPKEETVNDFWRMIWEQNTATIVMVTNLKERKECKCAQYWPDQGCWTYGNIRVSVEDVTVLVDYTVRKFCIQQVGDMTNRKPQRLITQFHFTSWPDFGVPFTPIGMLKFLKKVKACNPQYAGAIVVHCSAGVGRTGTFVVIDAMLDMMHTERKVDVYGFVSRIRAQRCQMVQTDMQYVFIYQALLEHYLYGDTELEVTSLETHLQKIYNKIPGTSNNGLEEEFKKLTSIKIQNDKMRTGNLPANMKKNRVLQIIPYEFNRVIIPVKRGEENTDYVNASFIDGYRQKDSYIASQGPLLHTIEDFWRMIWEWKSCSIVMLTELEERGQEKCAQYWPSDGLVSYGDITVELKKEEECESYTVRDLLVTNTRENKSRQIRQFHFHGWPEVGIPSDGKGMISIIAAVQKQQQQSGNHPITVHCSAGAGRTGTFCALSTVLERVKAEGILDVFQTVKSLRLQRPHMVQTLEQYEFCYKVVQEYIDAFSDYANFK
A further assay has as its target T4, TC-PTP (Homo sapiens, UniProt P17706).
T4 sequence (P17706 1-415): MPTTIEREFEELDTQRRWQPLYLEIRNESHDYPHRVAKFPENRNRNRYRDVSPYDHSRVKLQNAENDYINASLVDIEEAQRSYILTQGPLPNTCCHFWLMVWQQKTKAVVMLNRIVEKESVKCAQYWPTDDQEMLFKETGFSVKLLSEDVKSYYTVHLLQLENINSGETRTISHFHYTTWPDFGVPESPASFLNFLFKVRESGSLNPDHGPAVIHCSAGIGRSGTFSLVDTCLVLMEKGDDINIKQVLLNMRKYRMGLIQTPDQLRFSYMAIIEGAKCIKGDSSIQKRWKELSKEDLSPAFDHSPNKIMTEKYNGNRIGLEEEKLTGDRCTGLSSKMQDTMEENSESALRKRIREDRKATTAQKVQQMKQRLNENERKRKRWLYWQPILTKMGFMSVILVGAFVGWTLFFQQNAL
As to the kind of experiment: Inhibition of a panel of PTPs: TC-PTP. It is filed as biochemical.

Assay [2] addresses T2, PTP1B. As to the kind of experiment: Kinetics of time-dependent PTP1B inactivation, continuous DiFMUP assay. It counts as biochemical. As to conditions: catalase 0.5 μg/mL (1 unit per assay); PTP1B 5 nM; HEPES pH 7.0, 5 mM DTT.
Assay [3] deals with T2, PTP1B. As to the kind of experiment: Inhibition of a panel of PTPs: PTP1B phosphatase activity, DiFMUP substrate. It is filed as biochemical.
A further assay deals with T5, DUSP4 (Homo sapiens, UniProt Q13115).
T5 sequence (Q13115 1-394): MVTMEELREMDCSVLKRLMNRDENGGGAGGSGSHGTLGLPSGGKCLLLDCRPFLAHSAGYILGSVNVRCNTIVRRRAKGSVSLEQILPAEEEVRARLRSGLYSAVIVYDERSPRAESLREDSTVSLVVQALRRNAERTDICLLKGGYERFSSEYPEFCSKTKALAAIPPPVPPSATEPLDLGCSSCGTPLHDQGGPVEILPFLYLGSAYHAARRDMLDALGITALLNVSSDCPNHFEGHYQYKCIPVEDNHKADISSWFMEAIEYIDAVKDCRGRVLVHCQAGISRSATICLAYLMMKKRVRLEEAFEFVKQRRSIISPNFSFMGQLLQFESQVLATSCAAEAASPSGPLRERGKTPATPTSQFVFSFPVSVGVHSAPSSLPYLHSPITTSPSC
As to the kind of experiment: Inhibition of a panel of PTPs: DUSP4. It counts as biochemical.

Another assay concerns the target T6, PTP-PEST (Homo sapiens, UniProt Q05209).
T6 sequence (Q05209 1-780): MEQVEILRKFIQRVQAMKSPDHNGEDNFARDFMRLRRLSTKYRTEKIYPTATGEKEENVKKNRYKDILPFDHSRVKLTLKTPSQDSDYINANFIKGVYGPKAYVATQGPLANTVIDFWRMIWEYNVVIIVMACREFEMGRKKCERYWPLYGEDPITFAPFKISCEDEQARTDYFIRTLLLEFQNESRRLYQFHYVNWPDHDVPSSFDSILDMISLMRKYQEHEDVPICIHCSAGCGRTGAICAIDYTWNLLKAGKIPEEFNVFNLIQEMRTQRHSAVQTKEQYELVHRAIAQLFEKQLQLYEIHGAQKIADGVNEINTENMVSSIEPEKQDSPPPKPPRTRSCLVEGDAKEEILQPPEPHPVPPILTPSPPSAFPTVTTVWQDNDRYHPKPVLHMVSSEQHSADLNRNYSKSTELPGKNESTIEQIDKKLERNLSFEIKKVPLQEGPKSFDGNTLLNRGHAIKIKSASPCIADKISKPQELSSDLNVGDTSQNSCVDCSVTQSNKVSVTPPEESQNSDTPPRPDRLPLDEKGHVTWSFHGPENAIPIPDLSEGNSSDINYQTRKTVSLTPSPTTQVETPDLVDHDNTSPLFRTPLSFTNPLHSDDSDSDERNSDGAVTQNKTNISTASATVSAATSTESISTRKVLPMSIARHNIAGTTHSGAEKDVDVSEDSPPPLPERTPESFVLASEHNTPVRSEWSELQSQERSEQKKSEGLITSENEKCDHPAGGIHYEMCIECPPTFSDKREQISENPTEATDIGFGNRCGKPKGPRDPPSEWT
In words: Inhibition of a panel of PTPs: PTP-PEST. It counts as biochemical.

Another assay deals with T7, DUSP10 (Homo sapiens, UniProt Q9Y6W6).
T7 sequence (Q9Y6W6 1-482): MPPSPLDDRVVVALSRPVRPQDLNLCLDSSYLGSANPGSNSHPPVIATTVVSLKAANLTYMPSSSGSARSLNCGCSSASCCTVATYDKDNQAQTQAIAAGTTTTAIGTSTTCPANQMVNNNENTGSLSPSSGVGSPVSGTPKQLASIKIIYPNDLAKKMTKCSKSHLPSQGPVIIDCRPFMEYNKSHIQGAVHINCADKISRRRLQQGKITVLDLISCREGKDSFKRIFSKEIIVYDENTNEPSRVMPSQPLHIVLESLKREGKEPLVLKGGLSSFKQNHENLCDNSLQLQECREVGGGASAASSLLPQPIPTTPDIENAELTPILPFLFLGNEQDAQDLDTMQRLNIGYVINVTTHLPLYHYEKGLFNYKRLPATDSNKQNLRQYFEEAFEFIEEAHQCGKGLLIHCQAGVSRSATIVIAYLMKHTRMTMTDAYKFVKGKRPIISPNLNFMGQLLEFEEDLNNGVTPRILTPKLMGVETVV
In words: Inhibition of a panel of PTPs: DUSP10. It counts as biochemical.

In assay [4] the target is T2, PTP1B. As to conditions: cited from earlier work.
In a further assay the test system is RAW 264 macrophages. In words: Anti-phosphotyrosine. As to conditions: 1 mM, 30 minutes; in the presence and absence of LPS. It is filed as cell-based.

Sequence of LAR (P10586 30-1907, species assumed): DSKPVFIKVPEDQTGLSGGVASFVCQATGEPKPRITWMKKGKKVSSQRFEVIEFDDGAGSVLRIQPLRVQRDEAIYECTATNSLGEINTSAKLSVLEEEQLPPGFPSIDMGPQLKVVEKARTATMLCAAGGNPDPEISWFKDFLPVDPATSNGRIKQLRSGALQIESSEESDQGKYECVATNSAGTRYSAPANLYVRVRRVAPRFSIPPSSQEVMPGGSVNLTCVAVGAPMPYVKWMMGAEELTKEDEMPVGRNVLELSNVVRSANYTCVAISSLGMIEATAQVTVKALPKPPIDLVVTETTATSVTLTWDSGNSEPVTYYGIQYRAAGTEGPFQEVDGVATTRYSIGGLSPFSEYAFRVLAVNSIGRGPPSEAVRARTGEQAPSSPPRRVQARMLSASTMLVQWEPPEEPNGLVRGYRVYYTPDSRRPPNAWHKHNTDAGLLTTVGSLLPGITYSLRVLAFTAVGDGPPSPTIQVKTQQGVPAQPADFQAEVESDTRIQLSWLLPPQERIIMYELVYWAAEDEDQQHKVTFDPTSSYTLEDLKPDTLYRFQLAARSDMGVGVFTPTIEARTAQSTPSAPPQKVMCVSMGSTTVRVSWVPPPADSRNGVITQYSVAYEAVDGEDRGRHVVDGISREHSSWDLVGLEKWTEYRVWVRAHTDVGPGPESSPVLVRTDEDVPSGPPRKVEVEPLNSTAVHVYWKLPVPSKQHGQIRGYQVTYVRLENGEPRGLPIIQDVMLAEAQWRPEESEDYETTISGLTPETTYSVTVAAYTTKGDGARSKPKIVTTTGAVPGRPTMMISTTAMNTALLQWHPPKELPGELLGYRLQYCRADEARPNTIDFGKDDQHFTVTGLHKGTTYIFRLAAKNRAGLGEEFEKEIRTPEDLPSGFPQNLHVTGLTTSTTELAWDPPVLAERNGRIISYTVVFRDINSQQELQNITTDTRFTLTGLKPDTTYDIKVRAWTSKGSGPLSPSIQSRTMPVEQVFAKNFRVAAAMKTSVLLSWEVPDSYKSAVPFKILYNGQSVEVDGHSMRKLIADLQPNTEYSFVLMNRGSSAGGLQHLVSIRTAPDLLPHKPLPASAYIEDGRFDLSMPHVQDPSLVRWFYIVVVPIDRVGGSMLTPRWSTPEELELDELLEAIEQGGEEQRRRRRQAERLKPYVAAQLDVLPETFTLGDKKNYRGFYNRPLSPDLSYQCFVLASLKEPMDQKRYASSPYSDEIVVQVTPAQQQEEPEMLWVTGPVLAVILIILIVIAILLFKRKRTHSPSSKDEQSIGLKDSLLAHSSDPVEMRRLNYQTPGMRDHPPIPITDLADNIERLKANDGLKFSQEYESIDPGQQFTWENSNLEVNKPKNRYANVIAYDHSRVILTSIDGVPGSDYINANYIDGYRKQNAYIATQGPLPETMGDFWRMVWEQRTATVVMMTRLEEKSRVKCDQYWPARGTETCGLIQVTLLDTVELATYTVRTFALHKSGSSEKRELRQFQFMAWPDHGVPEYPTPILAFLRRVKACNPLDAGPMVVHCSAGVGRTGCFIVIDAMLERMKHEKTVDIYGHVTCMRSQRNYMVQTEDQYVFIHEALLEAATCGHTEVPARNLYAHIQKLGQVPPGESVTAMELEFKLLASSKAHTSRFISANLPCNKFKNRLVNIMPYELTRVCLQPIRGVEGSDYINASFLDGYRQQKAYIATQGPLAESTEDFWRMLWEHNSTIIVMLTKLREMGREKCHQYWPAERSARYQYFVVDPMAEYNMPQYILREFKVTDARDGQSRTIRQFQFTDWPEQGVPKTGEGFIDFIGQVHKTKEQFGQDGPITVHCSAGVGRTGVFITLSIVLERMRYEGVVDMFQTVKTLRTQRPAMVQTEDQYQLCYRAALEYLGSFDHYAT

Usually Ki stands for the equilibrium dissociation constant of an inhibitor or competing ligand from its target. Take `Cc1ccc(S(=O)(=O)/C=C/C#N)cc1` [BAY 11-7082]: the inhibition constant (Ki) on DUSP14 worked out at 180 µM; at LAR, 2.5 µM; at DUSP16, 125 µM; on PTEN, 100 µM; at PTP-alpha, 2.3 µM; at TC-PTP, 1.5 µM. In addition, the Ki at PTP1B [3] worked out at 1 µM; on DUSP4 it was 140 µM; at PTP-PEST, 0.9 µM; at DUSP10, 150 µM. The “inhibition of IKK family members in vitro” value in the assay with IKK family members is “does not inhibit”. Moreover, the inhibition at 2 µM at PTP1B [1] is around 50%. Also, the “rate of inactivation of PTP1B in the absence and presence of catalase” value on PTP1B [2] is listed as “the same”.

Regarding `OO` [H2O2, hydrogen peroxide], the “rate of oxidation of the enzyme” value on PTP1B [4] is 10 M⁻¹ s⁻¹.

With `CC(C)(C)c1ccc(S(=O)(=O)/C=C/C#N)cc1` [BAY 11-7085], the Ki was 210 µM on DUSP14; 57 µM on LAR; 205 µM on DUSP16; 200 µM at PTEN; 45 µM on PTP-alpha; 39 µM on TC-PTP. For the same molecule, the Ki was 36 µM on PTP1B [3], 160 µM on DUSP4, 40 µM on PTP-PEST and 180 µM at DUSP10.

Turning to `[Na+].[Na+].[Na+].[O]=[V]([O-])([O-])[O-]` [sodium orthovanadate], in the assay on RAW 264 macrophages, the “extent of tyrosine phosphorylation (anti-pTyr immunoblot)” value is listed as “enhanced”.
